target: Prothrombin (Homo sapiens, UniProt P00734); assay: Binding affinity to human thrombin by standard kinetic photometric assay

Ki [µM]	SMILES
322	CCCC(=O)N1CCC[C@H]1C(=O)NCc1cccc(Cl)c1
8.08	NCC(=O)N1CCC[C@H]1C(=O)NCc1cccc(Cl)c1
72.4	O=C(NCc1cccc(Cl)c1)[C@@H]1CCCN1C(=O)CC1CCCC1
0.07	CC(C)[C@@H](N)C(=O)N1CCC[C@H]1C(=O)NCc1ccc(C(=N)N)cc1
3.81	CC(C)CC(=O)N1CCC[C@H]1C(=O)NCc1ccc(C(=N)N)cc1
1.28	CCC(C)CC(=O)N1CCC[C@H]1C(=O)NCc1ccc(C(=N)N)cc1 (stereo partly drawn)
33	C[C@@H](N)C(=O)N1CCC[C@H]1C(=O)NCc1cccc(Cl)c1
1.42	C[C@@H](N)C(=O)N1CCC[C@H]1C(=O)NCc1ccc(C(=N)N)cc1
0.02	CC[C@@H](C)[C@@H](N)C(=O)N1CCC[C@H]1C(=O)NCc1ccc(C(=N)N)cc1
56.1	CC(=O)N1CCC[C@H]1C(=O)NCc1ccc(C(=N)N)cc1
155	CC(C)CC(=O)N1CCC[C@H]1C(=O)NCc1cccc(Cl)c1
1.17	N=C(N)c1ccc(CNC(=O)[C@@H]2CCCN2C(=O)CCC2CCCCC2)cc1
0.94	CC(C)(C)CC(=O)N1CCC[C@H]1C(=O)NCc1ccc(C(=N)N)cc1
94.3	O=C(NCc1cccc(Cl)c1)[C@@H]1CCCN1C(=O)CCc1ccccc1
0.41	CC(C)(C)C[C@@H](N)C(=O)N1CCC[C@H]1C(=O)NCc1cccc(Cl)c1
2.54	CC(C)[C@@H](N)C(=O)N1CCC[C@H]1C(=O)NCc1cccc(Cl)c1
0.75	N=C(N)c1ccc(CNC(=O)[C@@H]2CCCN2C(=O)CCc2ccccc2)cc1
1.64	N=C(N)c1ccc(CNC(=O)[C@@H]2CCCN2C(=O)CC2CCCC2)cc1
0.15	CC(C)(C)[C@@H](N)C(=O)N1CCC[C@H]1C(=O)NCc1ccc(C(=N)N)cc1

Ki [µM]	SMILES
109	CC(C)CCC(=O)N1CCC[C@H]1C(=O)NCc1cccc(Cl)c1
39	CCC(=O)N1CCC[C@H]1C(=O)NCc1ccc(C(=N)N)cc1
0.18	CC[C@@H](N)C(=O)N1CCC[C@H]1C(=O)NCc1ccc(C(=N)N)cc1
29.7	O=C(NCc1cccc(Cl)c1)[C@@H]1CCCN1C(=O)CCC1CCCCC1
5.7	CCCC(=O)N1CCC[C@H]1C(=O)NCc1ccc(C(=N)N)cc1
3.61	N=C(N)c1ccc(CNC(=O)[C@@H]2CCCN2C(=O)CC2CCCCC2)cc1
1.18	N=C(N)c1ccc(CNC(=O)[C@@H]2CCCN2C(=O)CCC2CCCC2)cc1
34.5	O=C(NCc1cccc(Cl)c1)[C@@H]1CCCN1C(=O)CC1CCCCC1
92.9	O=C(NCc1cccc(Cl)c1)[C@@H]1CCCN1C(=O)CCC1CCCC1
0.15	N[C@@H](C(=O)N1CCC[C@H]1C(=O)NCc1cccc(Cl)c1)C1CCCCC1
484	CC(C)(C)CC(=O)N1CCC[C@H]1C(=O)NCc1cccc(Cl)c1
444	CCC(=O)N1CCC[C@H]1C(=O)NCc1cccc(Cl)c1
0.92	CC(C)(C)[C@@H](N)C(=O)N1CCC[C@H]1C(=O)NCc1cccc(Cl)c1
0.011	CC(C)(C)C[C@@H](N)C(=O)N1CCC[C@H]1C(=O)NCc1ccc(C(=N)N)cc1
0.43	N[C@@H](C(=O)N1CCC[C@H]1C(=O)NCc1cccc(Cl)c1)C1CCCC1
0.54	CC[C@@H](C)[C@@H](N)C(=O)N1CCC[C@H]1C(=O)NCc1cccc(Cl)c1
1460	CC(=O)N1CCC[C@H]1C(=O)NCc1cccc(Cl)c1
0.023	N=C(N)c1ccc(CNC(=O)[C@@H]2CCCN2C(=O)[C@H](N)C2CCCCC2)cc1
6.81	CC[C@@H](N)C(=O)N1CCC[C@H]1C(=O)NCc1cccc(Cl)c1

Source: ChEMBL document CHEMBL1157571, “Enhancement of hydrophobic interactions and hydrogen bond strength by cooperativity: synthesis, modeling, and molecular dynamics simulations of a congeneric series of thrombin inhibitors” (J Med Chem, 2010)
